From patent US20240091247A1, “INHIBITOR FOR CHRONIC MYELOID LEUKEMIA STEM CELLS” (Ohara Pharmaceutical Co., Ltd., priority 2021, published 2024)

Columns and labels:
[1] = system: LXN; experiment: LXN gene expression by microarray in KBM5 cells; assay type: cell-based; details: 100 nM OR21, 1000 nM imatinib
Method: (§1) K562 cells (cell lines derived from CML) were purchased from JCRB cell bank and KBM5 cells (cell lines derived from CML) were provided by Dr. M. Beran (MD Anderson Cancer Center, University of Texas). These calls were cultured in an RPMI 1640 medium containing 10% fetal bovine serum (FBS) and 1% penicillin-streptomycin at 37° C. in atmosphere of 5% CO2.
(§2) After the culture, mRNA was collected and gene expression was comprehensively analyzed by microarrays.

[2] = system: LXN; experiment: LXN protein expression by Western blotting, OR21 with TKI (FIG. 5); assay type: cell-based; details: K562 and KBM5 cells, 100 nM OR21, 1000 nM imatinib, 2.5 nM dasatinib, 1, 2 and 3 days, corrected with β actin
Method: as §1
0, 24, and 48 hours after the cell seeding, 100 nM OR21, a DNA methyltransferase inhibitor, was added. […] After the culture, the cells were collected, dissolved, and determined for protein expression level of LXN by Western blotting. […] The expression level of LXN shown in FIG. 5 represents each expression level of the cases when the LXN expression under each condition was corrected with β actin and the expression level in the control was taken as 1.0.

[3] = system: stem cells or progenitor cells of CML; experiment: Mouse model of CML (recipient mice engrafted with GFP positive MIG-BCR-ABL1 myeloid cells); assay type: in vivo; details: after 12 days of administration, OR21 1.35 mg/kg i.p., IM 150 mg/kg oral
Method: Recipient mice were engrafted with myeloid cells to which GFP positive MIG-BCR-ABL1 had been introduced and used as CML models. […] After administration of the drugs to each group for 12 days, the GFP positive cells in peripheral blood, bone marrow, and spleen were determined. Inter-group comparisons were performed by a significance test of Mann-Whitney U-tests (p<0.05, **p<0.01) in FIG. 1.

[4] = system: stem cells of CML; experiment: Limiting dilution assay in secondarily transplanted mice; assay type: in vivo; details: peripheral blood, 16 weeks after secondary transplantation; compared to vehicle or IM donor group
Method: Then, engraftment of GFP positive cells in the peripheral blood (PB) at 16 weeks after the secondary transplantation was determined and analyzed by limiting dilution assay. […] The bottom row of the table indicates the cell number required to be engrafted. The larger numbers mean that it is more difficult to engraft. It is noted that engraftment of GFP positive cells is defined to have a GFP positive rate of 0.5% or more in the peripheral blood of recipient mice. […] The higher plots or slope of the lines mean that it is more difficult to engraft.

[5] = system: LXN; experiment: LXN gene expression by microarray in K562 cells; assay type: cell-based; details: 100 nM OR21, 1000 nM imatinib
Method: as §1, §2

[6] = system: DNMT1; experiment: DNMT1 expression in K562 cells (FIG. 6); assay type: cell-based; details: 100 nM azacytidine, decitabine or cytarabine
[7] = system: LXN; experiment: LXN protein expression by Western blotting in K562 cells, azacytidine/decitabine/cytarabine with imatinib (FIG. 6); assay type: cell-based; details: 100 nM azacytidine, decitabine or cytarabine, 1000 nM imatinib
Method: 0, 24, and 48 hours after the cell seeding, azacytidine (100 nM), decitabine (100 nM), or cytarabine (100 nM) was added to K562 cell culture, cultured for 2 days. […] After the culture, the cells were collected, dissolved, and determined for protein expression level of LXN by Western blotting. The expression level of LXN shown in FIG. 6 represents each expression level of the cases when the LXN expression under each condition was corrected with β actin and the expression level in the control was taken as 1.0.

| SMILES | gene expression level of LXN in respect of the control [1] [times] | protein expression level of LXN [2] | gene expression level of LXN in respect of the control [5] [times] | expression of DNMT1 [6] | protein expression of LXN [7] | other results |
| --- | --- | --- | --- | --- | --- | --- |
| CC[Si](CC)(CC)OC[C@H]1O[C@@H](n2cnc(N)nc2=O)C[C@@H]1O [OR21] | 3.4 | increase in the protein expression level of LXN over time | 4.5 | – | – | linage-negative cells (Lin-) in bone marrow [3]: decreased; Lin-Sca-1+c-Kit+ (LSK) cells ([3]; bone marrow): decreased; GFP positive cell rate ([3]; peripheral blood, bone marrow and spleen, compared to vehicle group): significant decrease; GFP positive cells in mice of the secondary transplantation [4]: significantly reduced |
| Nc1ncn([C@@H]2O[C@H](CO)[C@@H](O)[C@H]2O)c(=O)n1 [azacytidine, 4-amino-1-β-D-ribofuranosyl-s-triazin-2(1H)-one] | – | – | – | reduced | – | – |
| Nc1ccn([C@@H]2O[C@H](CO)[C@@H](O)[C@@H]2O)c(=O)n1 [cytarabine] | – | – | – | did not exhibit inhibitory effect | no increase | – |
| Nc1ncn([C@H]2C[C@H](O)[C@@H](CO)O2)c(=O)n1 [decitabine, 4-amino-1-(2-deoxy-β-D-erythro-pentofuranosyl)-1,3,5-triazin-2(1H)-one] | – | – | – | reduced | increased | – |
| Cc1ccc(NC(=O)c2ccc(CN3CCN(C)CC3)cc2)cc1Nc1nccc(-c2cccnc2)n1 [imatinib] | 1.9 | almost no effect | 1.3 | – | – | – |
